Starred links: 1 amine or outer side, 2 acyl side, 3 side chain; linkers in the order of their positions; H or OH if unused. Positions of bridges follow the written chain, without caps; N, C: chain ends. Non-standard residues stand in square brackets, D forms with d. Residues, ends and D or L forms follow the SMILES beside them. *: point of attachment. X1 = CC[C@H](C)[C@@H](N[*:1])[C@@H](O)CC(=O)O[C@H](C(=O)[C@H](C)C(=O)[*:2])C(C)C; NMeY = CN[C@@H](Cc1ccc(O)cc1)C(=O)O; dNMeL = CN[C@H](CC(C)C)C(=O)O; Pyruvoyl = CC(=O)C(=O)*
Columns and labels:
[1] = tested on: HepG2 human hepatoma xenograft; test: Aplidine with sorafenib, HepG2 xenograft in athymic nude mice (Example 6); type: in vivo; conditions: for antitumor activity as single agent (monotherapy): doses tested; for % Inhibition G4: sorafenib 30 mg/kg/day; for % Inhibition G3: sorafenib 60 mg/kg/day; for % Inhibition G2: aplidine 0.06 mg/kg/day
Method: (§1) Female athymic nude mice (Harlan Sprague Dawley, Madison, Wis.) were utilized for all experiments. Mice were implanted with a cell suspension when mice were 6-8 weeks of age. Animals were housed in ventilated rack caging with food and water ad libitum. The mice were acclimated for at least 5 days prior to tumor implantation.
The tumor model used in this study was HepG2, which is a human hepatoma cell line obtained from the ATCC (Manassas, Va.). HepG2 cells were grown in MEM medium, 10% FBS, 1.5 g/l sodium bicarbonate, 0.1 mM non-essential amino acids, 1.0 mM sodium pyruvate and 2 mM L-glutamine. Cells from in vitro passage 4-20 were implanted SC into study mice: 5×10^6 cells/mouse in 0.2 ml 50% Matrigel/50% medium without antibiotics or serum, using a 23 G needle and 1 cc syringe. Bacterial cultures were performed on aliquots of the cells prepared for implantation.
Tumor measurements were determined as disclosed in Example 1. When tumor growth was within an average size range of 130±44 mg (mean±SD), mice were randomized into the treatment and control groups based on tumor weight by using LabCat® In Life module V 8.0 SP1 tumor tracking and measurement software.
(§2) The treatment of HepG2-tumor-bearing mice was initiated on DPI (Day Post Implantation) 19. Body weights were recorded on treatment days and when tumor sizes were measured. In those days wherein the two drugs were administered the same day, the combination therapy groups were treated by co-administering the two drugs at the same time, with no attempt to sequence the treatments.
(§3) Aplidine was provided in the form of vials of lyophilized aplidine powder which was reconstituted in Cremophor EL/ethanol/water (CEW) 15/15/70 to a concentration of 0.5 mg/ml. The aplidine solution in CEW was diluted in 0.9% Saline to the dosing formulation concentrations, being the final proportion of CEW of 0.18/0.18/0.84.
(§4) Tumor size measurements were recorded twice weekly from the treatment initiation until the termination of the study.
(§5) Mean, standard deviation and standard error of the mean were determined for tumor volume for all animal groups at all assessments. Student's t test was performed on tumor volumes at each measurement day, including at the end of the study, to determine whether there were any statistically significant differences between combination treatment groups and single monotherapy treatment groups.
The definition and criteria for the evaluation of potentiation and the degree of additivity for the combination therapy were the same as those disclose in Example 1.

[2] = tested on: AML and ALL samples from pediatric patients; conditions: de novo or relapsed ALL and AML; cited from earlier work
[3] = tested on: CAKI-1 human renal tumor xenograft; test: Aplidine with temsirolimus, CAKI-1 xenograft in athymic nude mice (Example 4); type: in vivo; conditions: for % Inhibition G2: aplidine 0.06 mg/kg/day; for antitumor activity as single agent (monotherapy): temsirolimus 10 and 20 mg/kg/day; for % Inhibition G4: temsirolimus 10 mg/kg/day; for % Inhibition G3: temsirolimus 20 mg/kg/day
Method: as §1, with “implantation. […] The tumor model used in this study was CAKI-1, which was implanted in the animals as disclosed in Example 2.” for “implantation.”
Tumor measurements were determined as disclosed in Example 1. When tumor growth was within an average size range of 140±34 mg (mean±SD), mice were randomized into the treatment and control groups based on tumor weight by using LabCat® In Life module V 8.0 SP1 tumor tracking and measurement software.
as §2, with “CAKI-1-tumor-bearing” for “HepG2-tumor-bearing”, “21.” for “19.”
as §3
Temsirolimus was provided in the form of vials containing a non-aqueous, ethanolic, sterile solution of temsirolimus, 25 mg/ml. […] Then, the solution was further diluted in 0.9% Saline to the dosing formulation concentrations.
Tumor size measurements were recorded twice weekly from the treatment initiation until the termination of the study. Tumor growth inhibition was assessed comparing the mean tumor weight between the two agents in combination (aplidine and temsirolimus) against temsirolimus mean tumor weight at the different concentrations assayed.
as §5
The definition and criteria for the evaluation of potentiation and the degree of additivity for the combination therapy were the same as those disclosed in Example 1.

ALL-MOLT4 cells = conditions: mechanistic studies; cited from earlier work
[4] = tested on: MRI-H-121 human renal tumor xenograft; test: Aplidine with sunitinib, MRI-H-121 xenograft in athymic nude mice (Example 2); type: in vivo; conditions: doses and schedules tested
Method: (§6) Female athymic nude mice (Harlan Sprague Dawley, Madison, Wis.) were utilized for all experiments. Mice were implanted with tumor fragments or a cell suspension when mice were 5 weeks of age. Animals were housed in ventilated rack caging, 5 mice per cage, with food and water ad libitum. The mice were acclimated for 1 week prior to being implanted with tumor fragments or cell suspensions.
(§7) Tumor measurements were determined as disclosed in Example 1.
(§8) Body weights were recorded on treatment days and when tumor sizes were measured. In those days wherein the two drugs were administered the same day, the combination therapy groups were treated by co-administering the two drugs at the same time, with no attempt to sequence the treatments.
as §3, with “0.18/0.18/0.84. […]” for “0.18/0.18/0.84.”
as §4
(§9) Mean, standard deviation and standard error of the mean were determined for tumor volume for all animal groups at all assessments. […]

[5] = tested on: A498 human renal tumor xenograft; test: Aplidine with sunitinib, A498 xenograft in athymic nude mice (Example 2); type: in vivo; conditions: doses tested; sunitinib 40 mg/kg
Method: as §6, §7, §8
as §3, with “0.18/0.18/0.84. […]” for “0.18/0.18/0.84.”
as §4, §9

[6] = G2: aplidine 0.060 mg/kg/day IP
[7] = G3: temsirolimus 20 mg/kg/day IP
[8] = G4: temsirolimus 10 mg/kg/day IP

CNC(=O)c1cc(Oc2ccc(NC(=O)Nc3ccc(Cl)c(C(F)(F)F)c3)cc2)ccn1 [sorafenib]
% T/C on day 19 ([1]; G3: sorafenib 60 mg/kg/day PO): 88.8%
% T/C on day 22 ([1]; G3: sorafenib 60 mg/kg/day PO): 78.7%
% T/C on day 26 ([1]; G3: sorafenib 60 mg/kg/day PO): 60.1%
% T/C on day 30 ([1]; G3: sorafenib 60 mg/kg/day PO): 61.8%
% T/C on day 33 ([1]; G3: sorafenib 60 mg/kg/day PO): 66.2%
% T/C on day 19 ([1]; G4: sorafenib 30 mg/kg/day PO): 101.4%
% T/C on day 22 ([1]; G4: sorafenib 30 mg/kg/day PO): 123.5%
% T/C on day 26 ([1]; G4: sorafenib 30 mg/kg/day PO): 91.3%
% T/C on day 30 ([1]; G4: sorafenib 30 mg/kg/day PO): 100.9%
antitumor activity as single agent (monotherapy) [1]: inactive
% Inhibition G4 ([1]; day 22): −23.5%
% Inhibition G4 ([1]; day 26): 8.7%
% Inhibition G4 ([1]; day 30): −0.9%
% Inhibition G4 ([1]; day 33): 9.6%
% Inhibition G3 ([1]; day 19): 11.2%
% Inhibition G3 ([1]; day 26): 39.9%
% Inhibition G3 ([1]; day 30): 38.2%
% Inhibition G3 ([1]; day 33): 33.8%

CC[C@H](C)[C@H]1NC(=O)[C@@H](NC(=O)[C@@H](CC(C)C)N(C)C(=O)[C@@H]2CCCN2C(=O)C(C)=O)[C@@H](C)OC(=O)[C@H](Cc2ccc(OC)cc2)N(C)C(=O)[C@@H]2CCCN2C(=O)[C@H](CC(C)C)NC(=O)[C@@H](C)C(=O)[C@H](C(C)C)OC(=O)C[C@@H]1O [aplidine, dehydrodidemnin B] (Pyruvoyl-P[dNMeL]T[X1]LP[NMeY](Me); ester 3-C)
concentration with in vitro cytotoxic activity [2]: 5 nM
% T/C on day 19 [1, 6]: 95.9%
% T/C on day 22 [1, 6]: 97.0%
% T/C on day 26 [1, 6]: 66.7%
% T/C on day 30 [1, 6]: 76.9%
% T/C on day 33 [1, 6]: 91.0%
% Inhibition G2 ([1]; day 19): 4.1%
% Inhibition G2 ([1]; day 22): 3.0%
% Inhibition G2 ([1]; day 26): 33.3%
% Inhibition G2 ([1]; day 30): 23.1%
% Inhibition G2 ([1]; day 33): 9.0%
antitumor activity as single agent (monotherapy) [1]: inactive
% T/C on day 21 [3, 6]: 98.2%
% T/C on day 24 [3, 6]: 94.6%
% T/C on day 27 [3, 6]: 75.6%
% T/C on day 30 [3, 6]: 66.0%
% T/C on day 34 [3, 6]: 81.0%
% T/C on day 38 [3, 6]: 91.1%
% T/C on day 42 [3, 6]: 84.1%
% T/C on day 45 [3, 6]: 80.7%
% T/C on day 48 [3, 6]: 80.1%
% T/C on day 56 [3, 6]: 89.8%
% T/C on day 58 [3, 6]: 89.9%
% Inhibition G2 ([3]; day 21): 1.8%
% Inhibition G2 ([3]; day 24): 5.4%
% Inhibition G2 ([3]; day 27): 24.4%
% Inhibition G2 ([3]; day 30): 34.0%
% Inhibition G2 ([3]; day 34): 19.0%
% Inhibition G2 ([3]; day 38): 8.9%
% Inhibition G2 ([3]; day 42): 15.9%
% Inhibition G2 ([3]; day 45): 19.3%
% Inhibition G2 ([3]; day 48): 19.9%
% Inhibition G2 ([3]; day 56): 10.2%
% Inhibition G2 ([3]; day 58): 10.1%
antitumor activity as single agent (monotherapy) [3]: inactive
VEGF secretion (ALL-MOLT4 cells): block VEGF secretion
antitumor activity as single agent (monotherapy) [4]: refractory
antitumor activity as single agent (monotherapy) [5]: no effect

CO[C@H]1C[C@@H]2CC[C@@H](C)[C@@](O)(O2)C(=O)C(=O)N2CCCC[C@H]2C(=O)O[C@H]([C@H](C)C[C@@H]2CC[C@@H](OC(=O)C(C)(CO)CO)[C@H](OC)C2)CC(=O)[C@H](C)/C=C(\C)[C@@H](O)[C@@H](OC)C(=O)[C@H](C)C[C@H](C)/C=C/C=C/C=C/1C [temsirolimus]
% T/C on day 21 [3, 7]: 98.3%
% T/C on day 24 [3, 7]: 76.7%
% T/C on day 27 [3, 7]: 75.3%
% T/C on day 30 [3, 7]: 47.0%
% T/C on day 34 [3, 7]: 42.2%
% T/C on day 38 [3, 7]: 48.0%
% T/C on day 42 [3, 7]: 51.9%
% T/C on day 45 [3, 7]: 58.9%
% T/C on day 48 [3, 7]: 63.6%
% T/C on day 56 [3, 7]: 75.3%
% T/C on day 58 [3, 7]: 78.8%
% T/C on day 21 [3, 8]: 95.7%
% T/C on day 24 [3, 8]: 69.9%
% T/C on day 27 [3, 8]: 81.3%
% T/C on day 30 [3, 8]: 53.2%
% T/C on day 34 [3, 8]: 50.4%
% T/C on day 38 [3, 8]: 51.1%
% T/C on day 42 [3, 8]: 60.3%
% T/C on day 45 [3, 8]: 66.7%
% T/C on day 48 [3, 8]: 66.2%
% T/C on day 56 [3, 8]: 73.4%
% T/C on day 58 [3, 8]: 76.5%
% Inhibition G4 ([3]; day 21): 4.3%
% Inhibition G4 ([3]; day 24): 30.1%
% Inhibition G4 ([3]; day 27): 18.7%
% Inhibition G4 ([3]; day 30): 46.8%
% Inhibition G4 ([3]; day 34): 49.6%
% Inhibition G4 ([3]; day 38): 48.9%
% Inhibition G4 ([3]; day 42): 39.7%
% Inhibition G4 ([3]; day 45): 33.3%
% Inhibition G4 ([3]; day 48): 33.8%
% Inhibition G4 ([3]; day 56): 26.6%
% Inhibition G4 ([3]; day 58): 23.5%
% Inhibition G3 ([3]; day 21): 1.7%
% Inhibition G3 ([3]; day 24): 23.3%
% Inhibition G3 ([3]; day 27): 24.7%
% Inhibition G3 ([3]; day 30): 53.0%
% Inhibition G3 ([3]; day 34): 57.8%
% Inhibition G3 ([3]; day 38): 52.0%
% Inhibition G3 ([3]; day 42): 48.1%
% Inhibition G3 ([3]; day 45): 41.1%
% Inhibition G3 ([3]; day 48): 36.4%
% Inhibition G3 ([3]; day 56): 24.7%
% Inhibition G3 ([3]; day 58): 21.2%
antitumor activity as single agent (monotherapy) [3]: did not meet the NCI criteria for activity
